# Experimental data from patent US11123413B2, “Carbapenemases for use with antibiotics for the protection of the intestinal microbiome” (priority 2015, dated 2021).
# Several values for one entry are separate records, joined by “and”; a condition that tells them apart may be missing. Equal values may be shown once.
# Key:
# [1] = Oral P2A and intravenous meropenem in jejunal-fistulated dogs; assay type: in vivo, laboratory beagles; details: peak level in dog jejunum; meropenem 30 mg/kg IV alone; individual dogs
# Protocol: The ability of P2A to degrade meropenem in the dog intestinal tract was evaluated using laboratory beagles that had permanent jejunal fistulas. The fistulas allowed the repeated collection of jejunal chyme specimens from these animals. Dogs were treated with peroral P2A (1 mg/kg) in a liquid formulation (PBS buffer), and/or intravenous meropenem (30 mg/kg). Serum samples were collected and serum meropenem levels quantified. Jejunal chyme samples were collected and meropenem and P2A levels were quantified. Meropenem levels in serum and chyme were measured using a plate diffusion method using meropenem susceptible Micrococcus luteus TS504 as the test strain. P2A activity levels in chyme were determined spectrophotometrically using meropenem as a substrate. Meropenem hydrolysis was monitored at a wavelength of 297 nm.
# [2] = tested on: gut microbiome; set-up: species or system Yorkshire piglets; details: in vivo
# Protocol: The animals were treated with ertapenem (30 mg/kg) via intravenous infusion one a day for a total of 7 days.
# Two pre-treatment fecal samples were obtained, the first 4 days after the animals arrived at the animal treatment facility (Day −7), and the second 7 days after arrival (Day −4). An additional 3 fecal samples were collected at Day 4, Day 8, and Day 9. The fecal samples were collected using the OMNIgene GUT sample collection kits (OMR-200, DNA Genotek, Ontario, Canada) and stored at room temperature away from light until all samples were collected. DNA isolated from the fecal samples was subjected to deep sequencing of the intestinal microbiome and analyses.
# DNA was isolated from the fecal samples and subjected to whole genome shotgun sequencing using an Illumine HiSeq system with a target of 20 million 100 bp single reads per sample. […]
# The percent similarity based on the relative bacterial strain abundance was calculated. […] Animals began ertapenem treatment on Day 1 and the percent similarity decreased every day the animals were evaluated. […]
# A statistical analysis was performed to determine the probability that the microbiomes before and after antibiotic treatment remained the same or were different. The microbiome sequence data were analyzed using a parameterization of the Dirichlet-Multinomial distribution (La Rosa et al., 2012) to perform a Likelihood Ratio Test. […]
SMILES,Meropenem [1],microbiome diversity (percent similarity of strain relative abundance) [2]
C[C@@H](O)[C@H]1C(=O)N2C(C(=O)O)=C(S[C@@H]3CN[C@H](C(=O)N(C)C)C3)[C@H](C)[C@H]12 [Meropenem],3.0 ug/ml (2×) and 3.2 ug/ml,
C[C@@H](O)[C@H]1C(=O)N2C(C(=O)O)=C(S[C@@H]3CN[C@H](C(=O)Nc4cccc(C(=O)O)c4)C3)[C@H](C)[C@H]12 [ertapenem],,causes a loss of diversity in the microbiome
